Read-outs that look alike come from different tables or passages of the source.
Experiments:
[1] = system: human dermal fibroblasts (HDFs)
Description: (§1) Human normal skin-derived fibroblast (human dermal fibroblasts; HDFs) were suspended in a normal medium (10% FBS-added Dulbecco's modified minimum essential medium; DMEM). This was seeded in a 12-well plate at a concentration of 3×10^4 cells/well and culturing was started at 5% CO2/95% humidified air, 37° C. The next day (day 0), the culture supernatant was removed by suction and a normal medium (group 1), an adipocyte induction medium (group 2), or an adipocyte induction medium (groups 3-8) added with ALK5 inhibitor II at concentration of 4 μM was added at 1 mL/well.
The adipocyte induction medium is DMEM added with 1 nM T3, 1 μM Rosiglitazone, 0.5 mM isobutylmethylxanthine (IBMX), 0.5 μM dexamethason, 1 μg/mL Insulin and 10% FBS.
Once every 2 days, the medium was substituted by a fresh one. In groups 3-7, the cells were cultured in an adipocyte induction medium added with ALK5 inhibitor II only in the periods of Days 0-2, Days 0-4, Days 0-6, Days 0-8 and Days 0-10, respectively, and thereafter cultured in an adipocyte induction medium without addition of ALK5 inhibitor II. In group 8, the cells were cultured in an adipocyte induction medium added with ALK5 inhibitor II throughout the whole period of Days 0-14. On day 14, the medium was removed from each well by suction, the cells were washed with PBS(−) and total RNA was extracted from the cells by using RNA easy Mini Kit manufactured by Qiagen. cDNA was synthesized from the RNA by using Rever Tra Ace qPCR RT Master Mix. The cDNA was admixed with Real-time PCR Master Mix, primers specific to UCP1 gene or β actin gene and Taqman probe. qRT-PCR was performed using AB7300 Real-time PCR system. The mRNA level of UCP1 gene was quantified as a ratio to β actin gene mRNA and calculated with the value of fibroblast cultured in the normal medium as 1.

[2] = system: human dermal fibroblasts (HDFs); remark: listed apart in the source
Description: as §1
Once every 2 days, the medium was substituted by a fresh one. In groups 3-7, the cells were cultured in an adipocyte induction medium added with ALK5 inhibitor II only in the periods of Days 0-2, Days 0-4, Days 0-6, Days 0-8 and Days 0-10, respectively, and thereafter cultured in an adipocyte induction medium without addition of ALK5 inhibitor II. In group 8, the cells were cultured in an adipocyte induction medium added with ALK5 inhibitor II throughout the whole period of Days 0-14.

[3] = system: human dermal fibroblasts (HDFs); assay: UCP1, CIDEA and KCNK3 gene mRNA by real time RT-PCR (Example 17); format: cell-based
Description: (Day −1). In the control (Ctrl) group, the culture supernatant of the next day (Day 0) was removed by suction and the cells were cultured in a normal medium up to day 14 while substituting the medium with a fresh one once every other day. In groups other than the control (Ctrl) group, the culture supernatant was removed by suction on day 0, and an adipocyte induction medium added with any of ALK5 inhibitor II (4 μM) and LY2157299 (8 μM) was added at 1 mL/well.
Thereafter, the cells were cultured in an adipocyte induction medium free of any compound of ALK5 inhibitor II and LY215799 during Day 9-Day 14. On day 14, the medium was removed by suction from the wells of all groups, and the cells were washed with PBS(−).

[4] = system: human dermal fibroblasts (HDFs); assay: UCP1 gene mRNA by real time RT-PCR (Example 2); format: cell-based; conditions: induction medium + T3 + Rosiglitazone, D4476 2 μM, FSK 2 μM, PD0325901 1 μM, SB431542 2 μM, day 14, FIG. 2
Description: This was seeded in a 24-well plate at a concentration of 1×10^4 cells/well (day 0), and culturing was started at 5% CO2/95% humid air, 37° C. The next day, the culture supernatant was removed by suction and, as described in the Figure, a normal medium, an adipocyte induction medium, or an adipocyte induction medium added with each low-molecular compound and the like was added at 500 μL/well. […] The concentrations of the additives are as follows: • T3: 1 nM • Rosiglitazone: 1 μM • D4476: 2 μM • Pifithrin alpha [p53 inhibitor]: 5 μM • Forskolin (FSK): 2 μM • PD0325901: 1 μM • SB431542: 2 μM. The culture medium was substituted by a fresh one every 3-4 days and the cells were cultured up to day 14.

[5] = system: human dermal fibroblasts (HDFs); assay: UCP1 mRNA response of induced cells to Isoproterenol or FSK stimulation (Example 3); format: cell-based; conditions: cells cultured 14 days in induction medium with D4476 in addition to T3 and Rosiglitazone; FIG. 3
Description: 10 μM Isoproterenol or FSK was added to these cells as described in the Figure. As a control, a group free of the addition was also prepared. After 5 hr, the culture medium was removed from each well by suction, the cells were washed with PBS(−) and total RNA was extracted from the cells with ISOGEN II. qRT-PCR was performed in the same manner as in Example 2. The mRNA level of UCP1 gene was quantified as a ratio to […] gene mRNA and calculated with the value of fibroblast cultured in the normal medium as 1.

[6] = system: human dermal fibroblasts (HDFs); assay: BODIPY, UCP1 and DAPI co-staining (Example 10); format: cell-based; conditions: D4476 2 μM in addition to T3 and Rosiglitazone, day 14, FIG. 10A, 10B
Description: The next day, the culture supernatant was removed by suction and, as described in the Figure, a normal medium, an adipocyte induction medium, or an adipocyte induction medium added with each low-molecular-weight compound and the like was added at 500 μL/well.
The adipocyte induction medium is a 10% FBS-added DMEM+MDI medium (10% FBS-added DMEM supplemented with 0.5 mM isobutylmethylxanthine (IBMX), 0.5 μM dexamethason and 1 μg/mL Insulin).
The concentrations of the additives are as follows: • T3: 1 nM • Rosiglitazone: 1 μM • D4476: 2 μM.
The culture medium was substituted by a fresh one every 3-4 days and the cells were cultured up to day 14.
The cells were fixed with 4% para-formaldehyde and washed with PBS(−).
Then, the cells were reacted in BODIPY 493/503 (Invitrogen)/PBS solution at room temperature for 5 min, washed 3 times with PBS and stained with DAPI. The cells were photographed at a magnification of 200 with a fluorescence microscope.

[7] = ALK5 inhibitor II 4 μM or LY2157299 8 μM up to Day 9, day 14, FIG. 17

Row | SMILES | UCP1 gene expression (conversion to brown adipocytes) ([1]; HDFs, ALK5 inhibitor II 4 μM in adipocyte induction medium, day 14, FIG. 13) | UCP1 gene expression ([1]; group 6: ALK5 inhibitor II 4 μM for days 0-8, then 6 days without it) | UCP1 gene expression ([1]; groups 3-5, 7, 8: ALK5 inhibitor II 4 μM for Days 0-2, 0-4, 0-6, 0-10 or 0-14) | staining intensity of UCP1 protein and staining positive cells ([2]; #6: ALK5 inhibitor II 4 μM for days 0-8, then 6 days without it) | UCP1 protein expression by immunostaining (conversion to brown adipocytes) ([2]; HDFs, ALK5 inhibitor II 4 μM in adipocyte induction medium, day 14, FIG. 14A, 14B) | UCP1 protein expression ([2]; other conditions cultured in the presence of ALK5 inhibitor II (in FIG. #2-5, 7, 8)) | CIDEA gene expression [3, 7] | KCNK3 gene expression [3, 7] | UCP1 gene expression [3, 7] | strength of induction of UCP1 gene expression, compared with LY2157299 ([3]; ALK5 inhibitor II 4 μM versus LY2157299 8 μM, day 14) | mRNA expression of UCP1 gene (conversion to brown adipocytes) [4] | responsiveness of induced cells to Isoproterenol or FSK stimuli [5] | lipid droplets stained with Bodipy and UCP1 protein [6]
1 | Cc1cccc(-c2n[nH]cc2-c2ccc3ncccc3n2)n1 [ALK5 Inhibitor II, 2-(3-(6-Methylpyridin-2-yl)-1H-pyrazol-4-yl)-1,5-naphthyridine] | converted to brown adipocytes strongly expressing UCP1 gene | the highest expression of UCP1 gene was induced | High expression of UCP1 gene was also induced | the staining intensity of UCP1 protein was high and many staining positive cells were present | converted to brown adipocytes highly expressing UCP1 protein | High expression of UCP1 protein was also detected | induced into brown adipocytes expressing UCP1 gene, CIDEA gene and KCNK3 gene | induced into brown adipocytes expressing UCP1 gene, CIDEA gene and KCNK3 gene | induced into brown adipocytes expressing UCP1 gene, CIDEA gene and KCNK3 gene | more strongly induced |  |  | 
2 | NC(=O)c1ccc(-c2nc(-c3ccc4c(c3)OCCO4)c(-c3ccccn3)[nH]2)cc1 [D4476, 4-[4-(2,3-dihydro-1,4-benzodioxin-6-yl)-5-(2-pyridlnyl-)1H-imidazol-2-yl]-benzamide] |  |  |  |  |  |  |  |  |  |  | induced to brown adipocytes that express mRNA of UCP1 gene | brown adipocyte-like responsiveness | converted to brown adipocytes expressing lipid droplets stained with Bodipy and UCP1 protein
